The text below walks through data of patent US9090583B2, “Benzopyrone estrogen receptor regulator” (BEIJING SHENOGEN PHARMA GROUP LTD., priority 2010, dated 2015).

In brackets after ≈: the same amount, converted by molar mass.

The IC50 is the concentration that gives 50% inhibition.

Type in all cases: cell-based
In assay [1] the test system is MDA-MB-231 cells. Nature of the assay: CellTiter-Glo Luminescent Cell Viability Assay on ER-negative breast cancer MDA-MB-231 cells. Conditions: Homo sapiens, MDA-MB-231, 72 h, average ± standard deviation when tested more than 3 times, read-out: Inhibition of the viability of breast cancer cells, IC50. In short, it runs like this:
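Cells seeded at 6×10^3 per well in DMEM with 10% FCS and exposed 72 h to compound at 0 to 100 μM (twelve concentrations, DMSO vehicle). Viability measured by CellTiter-Glo luminescence.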
(ATP-based viability assays read luminescence as a measure of living cells.)

Assay [2] concerns Hep3B2.1-7 cells. Nature of the assay: MTT assay, in vitro growth of liver cancer Hep3B2.1-7 cells. To be noted: 72 hours, read-out: Inhibition on liver cancer cells, IC50. (In general: Formazan colour is commonly taken as a measure of viable cells.)
The target in assay [3] is T1, ER-α36 (Homo sapiens, UniProt P03372).
T1 construct: endogenous in cells; host or cells: HEC-1A human endometrial cancer cells
T1 sequence (P03372 1-310 isoform P03372-4): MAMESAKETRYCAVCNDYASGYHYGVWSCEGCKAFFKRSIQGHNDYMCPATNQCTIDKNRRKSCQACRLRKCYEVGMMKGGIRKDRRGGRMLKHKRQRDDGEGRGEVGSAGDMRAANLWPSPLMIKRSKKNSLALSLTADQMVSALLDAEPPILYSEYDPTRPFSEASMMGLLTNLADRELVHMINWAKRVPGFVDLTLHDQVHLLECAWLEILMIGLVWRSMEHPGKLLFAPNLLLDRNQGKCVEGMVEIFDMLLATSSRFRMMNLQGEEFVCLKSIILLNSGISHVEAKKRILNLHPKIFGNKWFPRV
Nature of the assay: Regulation of ER-α36 protein expression in HEC-1A cells (Western blot). Conditions: serum-depleted HEC-1A cells; 1, 10, 50 and 100 nM; 24 and 48 hours; effect above the concentration of 50 nM. How it is done: Taking endometrial cancer HEC-1A cells as an example, serum-depleted HEC-1A cells were treated with compounds at concentrations of 1, 10, 50 and 100 nM for 24 hours and 48 hours. The treated cells were washed with PBS and lysed with lysis buffer (a mixture of 1*PBS (pH7.4), 1% NP-40, 0.7 mMEDTA, and protease inhibitor from Roche). The lysates were boiled for 5 minutes in a SDS gel loading buffer (25 mM Tris-Cl pH 6.8; 10% SDS; 2% glycerol; 20% β-mercaptoethanol; 0.01% bromophenol blue) and separated on a 10% SDS-PAGE gel. After electrophoresis, the proteins were transferred onto PVDF membrane (Millipore Transfer Membrane). The membrane was probed with Rabbit anti-ER36 antibody which is specific to 20 amino acid polypeptides at C-terminus of ER-α36. Then the membrane was incubated with an HRP-conjugated secondary antibody and visualized with ECL detection reagents.

With `CC(C)=CCc1c(O)c(CC=C(C)C)c2oc(-c3ccc(C(F)(F)F)cc3)c(O)c(=O)c2c1O` [Compound 98, 2-(4-trifluoromethylphenyl)-3,5,7-trihydroxy-6,8-di(3-methyl-2-buten-1-yl)-4H-benzopyran-4-one], the figures for the IC50 in assay [1] and in assay [2] were 1.62 µM and 0.0144 µg/mL (≈ 0.0303 µM), respectively. In assay [3], the “expression of ER-36 in cells” value is listed as “dramatically reduced”.
